Here are results for one substance from patent US10131691B2, “Compositions and methods for specific regulation of pyruvate dehydrogenase kinase” (THE BOARD OF TRUSTEES OF THE LELAND STANFORD JUNIOR …, priority 2011, dated 2018).

No end group written: not given here.

The subject of experiment [1] is fibroblasts derived from δPKC knock-out mice. Briefly: MARCKS phosphorylation in fibroblasts from δPKC knock-out mice. The experiment is classed as cell-based, mouse. The settings on record: fibroblasts lacking δPKC. The text has this:
Fibroblasts were isolated from wild-type or δPKC knockout mice (provided by Dr. Robert Messing, Gallo Center, UCSF) as previously described (Disatnik et al., 2004, J. Cell Sci., 117:4469-4479) and maintained in 20% fetal bovine serum.
Phosphorylation of myristoylated alanine-rich C kinase substrate (MARCKS), a ubiquitous PKC substrate, was monitored by Western blot of total cell lysates, using anti-phosphorylated MARCKS (Cell Signaling, Danvers, Mass.). Anti-MARCKS and anti-δPKC antibodies were obtained from Santa Cruz Biotechnology (Santa Cruz Biotechnology, CA, USA).
The ΨPDK sequence is found both in PDK and in the PDK-cognate protein, δPKC. It was therefore predicted that ΨPDK mimics inhibitory intra-molecular interaction, and, similar to ΨδRACK, ΨPDK should compete with the inhibitory interaction of PDK and δPKC, and increase δPKC-mediated functions (FIG. 1A). Phosphorylation of myristoylated alanine-rich C-kinase substrate (MARCKS) was used as a marker of PKC activity (Disatnik et al., 2004, J. Cell. Sci., 117:4469-4479). […] To determine the selectivity of the peptides for δPKC, fibroblasts derived from δPKC knock-out mice were also used.

Experiment [2] addresses T1, δPKC phosphorylation of PDK (Homo sapiens, UniProt Q05655).
T1 construct: purchased Invitrogen (δPKC); Abnova (PDK2)
Description: In vitro kinase assay: δPKC phosphorylation of PDK2. The experiment is classed as biochemical. The conditions noted are these: recombinant δPKC and PDK2. On the procedure:
In vitro phosphorylation assay. To determine the level of PDK and Drp1 phosphorylation in presence of ΨPDK, δPKC recombinant protein (Invitrogen, Calif., USA; 200 ng) was incubated with or without peptides for 10 min, then 100 ng recombinant PDK2 (Abnova, Taiwan) or Drp1 (Abnova, Taiwan) were added for 20 min at 37° C. in 40 μl of kinase buffer (20 mM Tris-HCl, 20 mM MgCl2, 1 μM DTT, 25 μM ATP, 1 mM CaCl2) containing 5 μCi [γ^32P] ATP (4500 Ci/mmol, ICN) in the presence of the low amount of PKC activators, phosphatidylserine (PS, 1.25 μg) and 1,2 dioleoyl sn-glycerol (DG, 0.04 μg). The kinase assay was terminated by adding loading Laemmli buffer containing 5% SDS and the samples were loaded on a 10% PAGE-SDS polyacrylamide gel, and the levels of phosphorylated PDK2 protein were determined by exposing the nitrocellulose to autoradiography. The nitrocellulose was also reprobed using respective antibodies for loading controls.
Since ΨPDK is derived from a PDK-like sequence in δPKC (FIG. 1B), it was reasoned that this peptide should act as a competitive inhibitor, selective for δPKC phosphorylation of PDK. To test this hypothesis directly, an in vitro kinase assay in which the ability of δPKC to phosphorylate PDK is determined was used.

Another experiment deals with E1 subunit of PDH. Briefly: 2-D IEF phosphorylation of PDH E1 subunit in hearts after I/R. More on the design: species or system rat. The conditions noted are these: cardiac I/R. Here is the method: An ex vivo model of acute ischemic heart damage was used, which involves a 30 min equilibration period, followed by 30 min of global ischemia, which in turn is followed by 60 min of reperfusion. The hearts were perfused with 1 μM TAT or TAT-conjugated peptide. Normoxic control hearts were subjected to 90 min perfusion in the absence of ischemia. Coronary effluent was collected to determine creatine phosphokinase (CPK) release during the first 30 min of the reperfusion period. At the end of the reperfusion period, hearts were sliced into 1-mm-thick transverse sections and incubated in triphenyltetrazolium chloride solution (TTC, 1% in phosphate buffer, pH 7.4) at 37° C. for 15 min. Infarct size was expressed as a percentage of the risk zone (equivalent to total LV muscle mass) (methods described in Brandman et al., 2007, J. Biol. Chem., 282:4113-4123; Inagaki et al., 2003, Circulation, 108:869-875). […]
As described above, δPKC phosphorylation of PDK following cardiac ischemia and reperfusion leads to the phosphorylation and a decline in the activity of pyruvate dehydrogenase (PDH) (Churchill et al., 2005, Circ. Res., 97:78-85). […] Since ΨPDK is derived from the PDK homologous sequence in δPKC, it was next determined whether PDK phosphorylation is affected by ΨPDK treatment.

Another experiment deals with MARCKS. Description: MARCKS phosphorylation in hearts subjected to I/R. Set-up: species or system rat. The conditions noted are these: vs control peptide. On the procedure: (§1) An ex vivo model of acute ischemic heart damage was used, which involves a 30 min equilibration period, followed by 30 min of global ischemia, which in turn is followed by 60 min of reperfusion. The hearts were perfused with 1 μM TAT or TAT-conjugated peptide. Normoxic control hearts were subjected to 90 min perfusion in the absence of ischemia. Coronary effluent was collected to determine creatine phosphokinase (CPK) release during the first 30 min of the reperfusion period. At the end of the reperfusion period, hearts were sliced into 1-mm-thick transverse sections and incubated in triphenyltetrazolium chloride solution (TTC, 1% in phosphate buffer, pH 7.4) at 37° C. for 15 min. Infarct size was expressed as a percentage of the risk zone (equivalent to total LV muscle mass) (methods described in Brandman et al., 2007, J. Biol. Chem., 282:4113-4123; Inagaki et al., 2003, Circulation, 108:869-875).

The subject of the next experiment is JNK. Description: JNK phosphorylation in hearts subjected to I/R (Western blot). Set-up: species or system rat. On the procedure: as §1
Rat hearts were homogenized in a buffer containing 210 mM mannitol, 70 mM sucrose, 5 mM MOPS and 1 mM EDTA followed by isolation of the mitochondria fraction (described in Churchill et al., 2008, J. Mol. Cell. Cardiol., 46:278-284) and identified by the presence of VDAC (MitoSciences, Eugene, Oreg., USA). The level of phosphorylated and unphosphorylated JNK1/2 was analyzed in the total fraction using respective specific antibodies (Cell Signaling, Danvers, Mass. and Santa Cruz Biotechnology, CA, USA).
First, I/R-induced infarct size after treatment with ΨPDK or δV1-1 (Inagaki et al., 2003, Circulation, 108:869-875), was smaller than that in hearts treated with the control peptide or with ΨδRACK, the δPKC-specific activator or with δV1-5 (FIG. 6A). Second, similar data were obtained when determining the levels of released creatine phosphokinase (CPK), as a marker of myocardial infarction; CPK levels in the ΨPDK- or δV1-1-treated hearts were similar and were lower than those after treatment with control peptide, ΨδRACK or δV1-5 (FIG. 6B).
To begin determining the contribution of each of the amino acids on the effect of the peptide, Alanine scanning was used (Brunel et al., 2006, J. Virol., 80:1680-1687; Chen et al., J. Pep. Res., 2000, 56:147-156; Brems et al., 1992, Prot. Eng., 5:527-533) (substituting individual amino acid with an alanine). The resultant ΨPDK peptide analogs were then used in the same model of myocardial infarction, using CPK release and JNK phosphorylation as markers for cardiac injury. CPI release into the perfusates and pJNK in the hearts were determined after I/R in the presence of respective peptides and compared to the levels in hearts subjected to I/R in the presence of the control peptide. None of the peptides having a substitution had any significant biological activity (Table 1).
Background: In western blotting, separated proteins are transferred to a membrane and probed.

T1 sequence (Q05655 whole entry): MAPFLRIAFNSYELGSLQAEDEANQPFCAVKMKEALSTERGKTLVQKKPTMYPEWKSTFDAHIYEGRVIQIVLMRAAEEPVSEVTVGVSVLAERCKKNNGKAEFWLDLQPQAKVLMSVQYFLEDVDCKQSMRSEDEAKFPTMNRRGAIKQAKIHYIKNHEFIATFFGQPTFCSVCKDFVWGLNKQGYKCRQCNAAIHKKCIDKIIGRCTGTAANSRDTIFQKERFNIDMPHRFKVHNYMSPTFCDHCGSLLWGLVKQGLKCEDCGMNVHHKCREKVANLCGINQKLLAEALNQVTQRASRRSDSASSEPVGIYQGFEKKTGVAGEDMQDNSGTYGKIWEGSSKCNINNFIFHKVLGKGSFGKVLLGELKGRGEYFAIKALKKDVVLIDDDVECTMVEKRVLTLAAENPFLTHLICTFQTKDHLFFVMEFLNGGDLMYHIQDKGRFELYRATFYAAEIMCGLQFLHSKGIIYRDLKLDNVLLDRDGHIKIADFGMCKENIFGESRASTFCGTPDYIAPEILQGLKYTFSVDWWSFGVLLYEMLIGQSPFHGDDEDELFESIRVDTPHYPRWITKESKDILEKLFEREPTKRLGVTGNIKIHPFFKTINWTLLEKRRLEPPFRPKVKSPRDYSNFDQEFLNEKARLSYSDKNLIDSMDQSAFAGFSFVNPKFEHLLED

For “ALSTER (not fully specified (C-terminus); also: TAT47-57 conjugated via disulfide) [ΨPDK, for cells and hearts conjugated to TAT47-57 via disulfide bond]”, the MARCKS phosphorylation entry in experiment [1] is “did not affect MARCKS phosphorylation”. Moreover, the “inhibition of δPKC phosphorylation of PDK” value in experiment [2] is on record as ~30%. Besides, the “phosphorylation of E1 subunit of PDH” value in the experiment on E1 subunit of PDH is on record as “did not occur”. Further, in the experiment on MARCKS, the “I/R-induced MARCKS phosphorylation” value is on record as “an increase in I/R-induced MARCKS phosphorylation”. For the same substance, in the experiment with JNK (ex vivo I/R hearts, 1 μM peptide), the “p-JNK/total JNK” value is reported as 0.4 ± 0.10. Besides, the “I/R-induced JNK phosphorylation (in words)” value in the experiment with JNK (ex vivo I/R, vs δV1-5 and ΨδRACK) is reported as “reduced I/R-induced JNK phosphorylation”.
